{"source": "patent US20050065595A1", "about": "“Implants containing combretastatin a-4” (priority 2001, published 2005)", "key": {"restenosis": {"tested_on": "restenosis", "details": "vascular wall injured by balloon angioplasty and stent placement; cited from earlier work"}, "[1]": {"tested_on": "smooth muscle cells (SMCs)", "experiment": "SMC proliferation inhibition (BrdU-ELISA or cell counting)", "type": "cell-based", "details": "for IC50: 96 h, SMCs, 2000 cells per well, BrdU-ELISA (paclitaxel: counting the number of cells), 24, 48, 72, 96 h", "procedure": "SMCs were plated out in a 96-well plate in a density of 2000 cells per well. After 24 h, different concentrations of the active substance were adjusted (10^−2 to 10^−10M). The proliferation was measured after 24, 48, 72, and 96 h following the addition of the active substance using a BrdU-ELISA or, in the case of paclitaxel, by counting the number of cells."}, "neointimal development [2]": {"tested_on": "neointimal development", "details": "animal experiments; cited from earlier work"}, "neointimal development [3]": {"tested_on": "neointimal development", "details": "swine; cited from earlier work"}, "endothelial cells": {"tested_on": "endothelial cells", "experiment": "Cell culture studies with endothelial cells after CA4 treatment", "type": "cell-based", "details": "following a treatment with CA4"}, "tumor cell lines": {"tested_on": "tumor cell lines", "details": "cell culture studies, many different tumor cell lines; read-out: IC50, growth of tumor cell lines; cited from earlier work"}, "tumors": {"tested_on": "tumors", "details": "various animal models; cited from earlier work"}, "alkaline phosphatases": {"tested_on": "alkaline phosphatases", "details": "by alkaline phosphatases; cited from earlier work"}}, "data": [{"smiles": "CO[C@H]1C[C@@H]2CC[C@@H](C)[C@@](O)(O2)C(=O)C(=O)N2CCCC[C@H]2C(=O)O[C@H]([C@H](C)C[C@@H]2CC[C@@H](O)[C@H](OC)C2)CC(=O)[C@H](C)/C=C(\\C)[C@@H](O)[C@@H](OC)C(=O)[C@H](C)C[C@H](C)/C=C/C=C/C=C/1C", "note": "[rapamycin]", "values": [{"measurement": "healing of the vascular wall", "setting": "restenosis", "result": "delayed healing of the vascular wall"}]}, {"smiles": "CC(=O)O[C@H]1C(=O)[C@@]2(C)[C@H]([C@H](OC(=O)c3ccccc3)[C@]3(O)C[C@H](OC(=O)[C@H](O)[C@@H](NC(=O)c4ccccc4)c4ccccc4)C(C)=C1C3(C)C)[C@]1(OC(C)=O)CO[C@@H]1C[C@@H]2O", "note": "[paclitaxel]", "values": [{"measurement": "IC50", "setting": "[1]", "result": "~10", "unit": "nM"}, {"measurement": "effect on neointimal development", "setting": "neointimal development [2]", "result": "inhibit the neointimal development"}, {"measurement": "effect 6 months after implantation of coated stents", "setting": "neointimal development [3]", "result": "the effect had been neutralized"}]}, {"smiles": "COc1ccc(/C=C\\c2cc(OC)c(OC)c(OC)c2)cc1O", "note": "[CA4, 2-methoxy-5-[(1Z)-2-(3,4,5-trimethoxyphenyl)ethenyl]phenol]", "values": [{"measurement": "IC50", "setting": "[1]", "result": "~0.5", "unit": "nM"}, {"measurement": "effectiveness relative to paclitaxel (SMC proliferation)", "setting": "[1]; CA4 vs paclitaxel", "result": "10 to 50", "unit": "times"}, {"measurement": "recovery of endothelial cells versus SMCs after treatment", "setting": "endothelial cells", "result": "endothelial cells are able to recover more rapidly than the SMCs"}]}, {"smiles": "COc1ccc(/C=C\\c2cc(OC)c(OC)c(OC)c2)cc1OP(=O)([O-])[O-].[Na+].[Na+]", "note": "[CA4P, disodium combretastatin-A4-3-O-phosphate]", "values": [{"measurement": "IC50", "setting": "tumor cell lines", "result": "0.2 to 6", "unit": "nM"}, {"measurement": "inhibition of tumor growth", "setting": "tumors", "result": "markedly inhibit the growth of tumors"}, {"measurement": "transformation into CA4 in vivo", "setting": "alkaline phosphatases", "result": "very rapidly transformed into CA4"}]}]}
